For this assay, the target named is human PTGES (Homo sapiens (Human), UniProt O14684). Description: Human PTGES biochemical enzyme inhibition assay (conversion of PGH2 to PGE2, TR-FRET). The following applies: Enzymatic conversion of PGH2 to PGE2; read-out: Human PTGES IC50. The procedure, abridged: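 FLAG-tagged human PTGES from Hi-5 insect cells preincubated 15–20 min with compound in pH 7.2 phosphate buffer with 2.5 mM reduced glutathione; reaction started with 8 nM PGH2 final, stopped with SnCl2/KF.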
Chain of human PTGES (O14684 whole entry): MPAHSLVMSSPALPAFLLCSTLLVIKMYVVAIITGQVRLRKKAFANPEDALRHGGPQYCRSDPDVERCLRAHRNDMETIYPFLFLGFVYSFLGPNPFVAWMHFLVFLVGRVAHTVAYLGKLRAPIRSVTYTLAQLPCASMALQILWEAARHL

Regarding `Cc1ncc(-c2cc(F)c(C(C(=O)Nc3cccc(CCC(=O)O)c3C)C3CCCC3)cc2F)cc1Cl` (racemic) [Example 180, (R/S) 3-[3-({[4-(5-chloro-6-methylpyridin-3-yl)-2,5-difluorophenyl](cyclopentyl)acetyl}amino)-2-methylphenyl]propanoic acid], the IC50 stood at 66.4 nM.

For the compound `Cc1cc(C(C(=O)Nc2cccc(CCC(=O)O)c2C)C2CCCC2)c(F)cc1-c1cncc(Cl)c1` (racemic) [Example 181, (R/S) 3-[3-({[4-(5-chloropyridin-3-yl)-2-fluoro-5-methylphenyl](cyclopentyl)acetyl}amino)-2-methylphenyl]propanoic acid], the 50% inhibitory concentration (IC50) was 2300 nM.

Consider `Cc1cc(C(C(=O)Nc2cccc(CCC(=O)O)c2C)C2CCCC2)c(F)cc1-c1cnc(C)c(Cl)c1` (racemic) [Example 182, (R/S) 3-[3-({[4-(5-chloro-6-methylpyridin-3-yl)-2-fluoro-5-methylphenyl](cyclopentyl)acetyl}amino)-2-methylphenyl]propanoic acid], for which the IC50 was found to be 741 nM.

`Cc1cc(C(C(=O)Nc2cccc(CCC(=O)O)c2C)C2CCCC2)c(F)cc1-c1cncc(C(F)(F)F)c1` (racemic) [Example 183, (R/S) 3-{3-[(cyclopentyl{2-fluoro-5-methyl-4-[5-(trifluoromethyl)pyridin-3-yl]phenyl}acetyl)amino]-2-methylphenyl}propanoic acid]: the 50% inhibitory concentration (IC50) was determined as 1000 nM.

In the case of `Cc1ncc(-c2ccc(C(C(=O)Nc3cccc(CCC(=O)O)c3C)C3CCCC3)cc2)cc1F` (racemic) [Example 211, (R/S) 3-[3-({cyclopentyl[4-(5-fluoro-6-methylpyridin-3-yl)phenyl]acetyl}amino)-2-methylphenyl]propanoic acid], the 50% inhibitory concentration (IC50) was found to be 190 nM.

Turning to `CCC(CC(=O)O)c1cccc(NC(=O)C(c2ccc(-c3cncc(CC(C)C)c3)c(F)c2)C2CCCC2)c1C` (single isomer, unassigned) [Example 194, 3-[3-({cyclopentyl[3-fluoro-4-(5-isobutylpyridin-3-yl)phenyl]acetyl}amino)-2-methylphenyl]pentanoic acid, single enantiomer], the half-maximal inhibitory concentration (IC50) is 6.82 nM.

In the case of `CCc1cncc(-c2ccc(C(C(=O)Nc3cccc(C(CC)CC(=O)O)c3C)C3CCCC3)cc2F)c1` (single isomer, unassigned) [Example 195, 3-[3-({cyclopentyl[4-(5-ethylpyridin-3-yl)-3-fluorophenyl]acetyl}amino)-2-methylphenyl]pentanoic acid, Single Enantiomer], the IC50 is 10.5 nM.

`CCC(CC(=O)O)c1cccc(NC(=O)[C@@H](c2ccc(-c3cncc(CC(F)(F)F)c3)cc2)C2CCCC2)c1C` (single isomer, unassigned) [Example 200]: the IC50 worked out at 17.7 nM.

In the case of `CCC(CC(=O)O)c1cccc(NC(=O)C(c2ccc(-c3cnc(C)c(C(F)(F)F)c3)c(F)c2)C2CCCC2)c1C` (single isomer, unassigned) [Example 201], the IC50 came out at 6.57 nM.

As for `CCC(CC(=O)O)c1cccc(NC(=O)[C@@H](c2ccc(-c3cncc(OC(C)C)c3)cc2)C2CCCC2)c1C` (single isomer, unassigned) [Example 203], the concentration for half-maximal inhibition (IC50) stood at 16.7 nM.

Regarding `Cc1c(CCC(=O)O)cccc1NC(=O)C(c1ccc(-c2cncc(CC(F)(F)F)c2)c(F)c1)C1CCC1` (single isomer, unassigned) [Example 205, 3-{3-[(cyclobutyl{3-fluoro-4-[5-(2,2,2-trifluoroethyl)pyridin-3-yl]phenyl}acetyl)amino]-2-methylphenyl}propanoic acid, Single Enantiomer], the IC50 amounted to 66.4 nM.

Regarding `Cc1c(CCC(=O)O)cccc1NC(=O)C(c1ccc(-c2cncc(CC(C)C)c2)c(F)c1)C1CCC1` (single isomer, unassigned) [Example 207, 3-[3-({cyclobutyl[3-fluoro-4-(5-isobutylpyridin-3-yl)phenyl]acetyl}amino)-2-methylphenyl]propanoic acid, Single Enantiomer], the 50% inhibitory concentration (IC50) amounted to 14.1 nM.

On to `Cc1c(NC(=O)C(c2ccc(-c3cncc(C(F)(F)F)c3)cc2)C2CCCC2)cccc1OCC(=O)O` (single isomer, unassigned; (+)) [Example 35, (+) {3-[(Cyclopentyl{4-[5-(trifluoromethyl)pyridin-3-yl]phenyl}acetyl)amino]-2-methylphenoxy}acetic acid], for which the IC50 was found to be 3730 nM.

With `Cc1c(CCC(=O)O)cccc1NC(=O)C(c1ccc(-c2cncc(C(F)(F)F)c2)c(F)c1)C1CCCC1` (single isomer, unassigned; (+)) [Example 49, (+) 3-{3-[(Cyclopentyl{3-fluoro-4-[5-(trifluoromethyl)pyridin-3-yl]phenyl}acetyl)amino]-2-methylphenyl}propanoic acid], the half-maximal inhibitory concentration (IC50) was 530 nM.

`Cc1c(CCC(=O)O)cccc1NC(=O)C(c1ccc(-c2cncc(C(F)(F)F)c2)cc1)C1CCC1` (single isomer, unassigned; (+)) [Example 56, (+) 3-{3-[(Cyclobutyl{4-[5-(trifluoromethyl)pyridin-3-yl]phenyl}acetyl)amino]-2-methylphenyl}propanoic acid]: the IC50 worked out at 7520 nM.

For the compound `Cc1c(CCC(=O)O)cccc1NC(=O)C(c1ccc(-c2ccc(C(F)(F)F)nc2)cc1)C1CCCC1` (single isomer, unassigned; (-)) [Example 5, (−) 3-{3-[(Cyclopentyl{4-[6-(trifluoromethyl)pyridin-3-yl]phenyl}acetyl)amino]-2-methylphenyl}propanoic acid], the half-inhibitory concentration (IC50) came to 795 nM.

As for `Cc1c(NC(=O)C(c2ccc(-c3cncc(C(F)(F)F)c3)cc2)C2CCCC2)cccc1OCC(=O)O` (single isomer, unassigned; (-)) [Example 34, (−) {3-[(Cyclopentyl{4-[5-(trifluoromethyl)pyridin-3-yl]phenyl}acetyl)amino]-2-methylphenoxy}acetic acid], the concentration for half-maximal inhibition (IC50) was 9.85 nM.

For `Cc1c(NC(=O)C(c2ccc(-c3cncc(C(F)(F)F)c3)c(F)c2)C2CCCC2)cccc1N(C)CC(=O)O` (single isomer, unassigned; (-)) [Example 188, (−) N-{3-[(cyclopentyl{3-fluoro-4-[5-(trifluoromethyl)pyridin-3-yl]phenyl}acetyl)amino]-2-methylphenyl}-N-methylglycine, Single Enantiomer], the IC50 is 24.2 nM.

With `Cc1c(CCC(=O)O)cccc1NC(=O)C(c1ccc(-c2cncc(CC(F)(F)F)c2)c(F)c1)C1CCCC1` (single isomer, unassigned; (-)) [Example 196, (−) 3-{3-[(cyclopentyl{3-fluoro-4-[5-(2,2,2-trifluoroethyl)pyridin-3-yl]phenyl}acetyl)amino]-2-methylphenyl}propanoic acid, Single Enantiomer], the half-maximal inhibitory concentration (IC50) came out at 74.7 nM.

Turning to `Cc1c(CCC(=O)O)cccc1NC(=O)C(c1ccc(-c2cnc(F)c(C(F)(F)F)c2)c(F)c1)C1CCCC1` (single isomer, unassigned; (-)) [Example 197], the half-inhibitory concentration (IC50) was found to be 19.3 nM.

On to `Cc1ncc(-c2ccc(C(C(=O)Nc3cccc(CCC(=O)O)c3C)C3CCCC3)cc2F)cc1CC(C)C` (single isomer, unassigned; (-)) [Example 198, (−) 3-[3-({cyclopentyl[3-fluoro-4-(5-isobutyl-6-methylpyridin-3-yl)phenyl]acetyl}amino)-2-methylphenyl]propanoic acid, Single Enantiomer], for which the IC50 came out at 20 nM.

With `Cc1c(CCC(=O)O)cccc1NC(=O)C(c1ccc(-c2cncc(OC(C)C)c2)c(F)c1)C1CCCC1` (single isomer, unassigned; (-)) [Example 199, (−) 3-[3-({cyclopentyl[3-fluoro-4-(5-isopropoxypyridin-3-yl)phenyl]acetyl}amino)-2-methylphenyl]propanoic acid, Single Enantiomer], the half-maximal inhibitory concentration (IC50) turned out to be 30.2 nM.

As to `Cc1ncc(-c2ccc(C(C(=O)Nc3cccc(CCC(=O)O)c3C)C3CCC3)cc2F)cc1C(F)(F)F` (single isomer, unassigned; (-)) [Example 206, (−) 3-{3-[(cyclobutyl{3-fluoro-4-[6-methyl-5-(trifluoromethyl)pyridin-3-yl]phenyl}acetyl)amino]-2-methylphenyl}propanoic acid, Single Enantiomer], the concentration for half-maximal inhibition (IC50) came out at 10.1 nM.

Take `Cc1c(CCC(=O)O)cccc1NC(=O)C(c1ccc(-c2cncc(C(F)(F)F)c2)c(F)c1)C1CCC1` (single isomer, unassigned; (-)) [Example 208, (−) 3-{3-[(cyclobutyl{3-fluoro-4-[5-(trifluoromethyl)pyridin-3-yl]phenyl}acetyl)amino]-2-methylphenyl}propanoic acid, Single Enantiomer]: the IC50 is 28.1 nM.

As to `Cc1c(CCC(=O)O)cccc1NC(=O)C(c1ccc(-c2cncc(OC(C)C)c2)c(F)c1)C1CCC1` (single isomer, unassigned; (-)) [Example 209, (−) 3-[3-({cyclobutyl[3-fluoro-4-(5-isopropoxypyridin-3-yl)phenyl]acetyl}amino)-2-methylphenyl]propanoic acid, Single Enantiomer], the IC50 came out at 39.3 nM.

As to `CCc1cncc(-c2ccc(C(C(=O)Nc3cccc(CCC(=O)O)c3C)C3CCC3)cc2F)c1` (single isomer, unassigned; (-)) [Example 210, (−) 3-[3-({cyclobutyl[4-(5-ethylpyridin-3-yl)-3-fluorophenyl]acetyl}amino)-2-methylphenyl]propanoic acid, Single Enantiomer], the IC50 turned out to be 35 nM.

For `Cc1c(CC(C)C(=O)O)cccc1NC(=O)C(c1ccc(-c2cncc(C(F)(F)F)c2)cc1)C1CCCC1` (single isomer, unassigned; stereoisomer 1) [Example 69, 3-{3-[(Cyclopentyl{4-[5-(trifluoromethyl)pyridin-3-yl]phenyl}acetyl)amino]-2-methylphenyl}-2-methylpropanoic acid, Stereoisomer 1], the IC50 is 8740 nM.

In general, IC50 refers to the concentration that inhibits the measured activity by half.
